Where only a bound is given, the exact number is not on record here.

One assay has as its target T1, Kv1.3 potassium channel (Homo sapiens, UniProt P22001).
T1 construct: expressed in transfected cells
The assay can be described thus: Kv1.3 potassium channel blocker activity, automated whole-cell patch clamp (Patchliner). The class given is cell-based. The following applies: CHO-K1 cells stably expressing Kv1.3; whole-cell current inhibition, Hill fit; read-out: Kv1.3 IC50. As for the experimental part:
CHO-K1 cells stably expressing Kv1.3 were grown in DMEM containing 10% heat-inactivated FBS, 1 mM sodium pyruvate, 2 mM L-glutamine and G418 (500 μg/ml).
The currents were evoked by applying 100 ms depolarizing pulses from −90 mV (holding potential) to +40 mV were applied with 0.1 Hz frequency. […] 10-second breaks were used between pulse trains (see Table H below).
Passive leak currents were subtracted online using a P/4 procedure (HEKA Elektronik Dr. Schulze GmbH). […] Total compound incubation time before the next pulse train was not longer than 10 seconds. Peak current inhibition was observed during compound equilibration.
A general note: In patch-clamp work, channel activity is measured electrically.

The next assay concerns the target hERG channel (Homo sapiens, UniProt Q12809). In words: cell-based.

Chain of hERG channel (Q12809 whole entry): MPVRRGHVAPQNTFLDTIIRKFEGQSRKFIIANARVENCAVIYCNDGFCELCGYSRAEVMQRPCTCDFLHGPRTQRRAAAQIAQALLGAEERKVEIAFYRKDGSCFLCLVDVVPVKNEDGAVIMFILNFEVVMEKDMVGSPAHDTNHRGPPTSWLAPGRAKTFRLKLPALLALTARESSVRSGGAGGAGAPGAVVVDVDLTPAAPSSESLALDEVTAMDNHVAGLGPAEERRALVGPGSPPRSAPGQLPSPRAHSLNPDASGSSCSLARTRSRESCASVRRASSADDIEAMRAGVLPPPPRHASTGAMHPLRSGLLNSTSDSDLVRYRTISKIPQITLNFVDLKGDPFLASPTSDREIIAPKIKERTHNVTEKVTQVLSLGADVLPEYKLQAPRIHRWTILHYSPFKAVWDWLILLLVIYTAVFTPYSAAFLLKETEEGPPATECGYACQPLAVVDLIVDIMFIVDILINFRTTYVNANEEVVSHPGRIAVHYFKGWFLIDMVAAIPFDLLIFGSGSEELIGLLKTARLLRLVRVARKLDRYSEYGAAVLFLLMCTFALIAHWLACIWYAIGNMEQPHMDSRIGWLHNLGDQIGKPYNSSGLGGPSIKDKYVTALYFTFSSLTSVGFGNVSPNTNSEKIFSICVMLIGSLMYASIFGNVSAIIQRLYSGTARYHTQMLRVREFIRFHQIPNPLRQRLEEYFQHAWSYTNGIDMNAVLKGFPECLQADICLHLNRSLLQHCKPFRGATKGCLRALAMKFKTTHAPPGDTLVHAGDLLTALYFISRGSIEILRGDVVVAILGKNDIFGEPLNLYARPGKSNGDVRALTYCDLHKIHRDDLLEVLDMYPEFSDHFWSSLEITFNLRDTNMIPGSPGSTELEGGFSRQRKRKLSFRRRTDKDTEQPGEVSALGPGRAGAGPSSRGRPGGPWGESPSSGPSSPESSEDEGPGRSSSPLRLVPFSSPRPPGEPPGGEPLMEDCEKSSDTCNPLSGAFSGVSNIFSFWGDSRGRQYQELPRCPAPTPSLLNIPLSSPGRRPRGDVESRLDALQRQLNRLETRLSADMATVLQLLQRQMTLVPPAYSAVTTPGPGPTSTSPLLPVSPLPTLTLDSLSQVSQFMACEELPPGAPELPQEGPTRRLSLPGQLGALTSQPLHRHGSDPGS
T1 sequence (P22001 whole entry): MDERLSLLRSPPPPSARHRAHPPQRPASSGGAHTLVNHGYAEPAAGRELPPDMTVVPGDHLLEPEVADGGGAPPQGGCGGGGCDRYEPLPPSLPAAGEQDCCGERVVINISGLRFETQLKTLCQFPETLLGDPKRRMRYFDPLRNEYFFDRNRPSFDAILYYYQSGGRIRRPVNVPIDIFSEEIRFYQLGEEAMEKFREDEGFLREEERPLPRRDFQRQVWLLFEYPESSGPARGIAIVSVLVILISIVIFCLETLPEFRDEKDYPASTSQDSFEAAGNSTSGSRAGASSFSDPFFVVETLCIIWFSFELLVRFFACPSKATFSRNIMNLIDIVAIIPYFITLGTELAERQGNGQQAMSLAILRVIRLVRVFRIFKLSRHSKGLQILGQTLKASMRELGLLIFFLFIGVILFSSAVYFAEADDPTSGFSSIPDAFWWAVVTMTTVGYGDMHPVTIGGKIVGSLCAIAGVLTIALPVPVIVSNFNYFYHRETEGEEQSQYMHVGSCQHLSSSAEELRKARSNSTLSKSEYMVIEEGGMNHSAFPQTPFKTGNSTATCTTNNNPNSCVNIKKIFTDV
Protocol for hERG channel: This assay is used to evaluate the disclosed compounds' inhibition activities against the hERG channel.
CHO-K1 cells stably expressing hERG were grown in Ham's F-12 Medium with glutamine containing 10% heat-inactivated FBS, 1% penicillin/streptomycin, hygromycin (100 μg/ml) and G418 (100 μg/ml). Cells were grown in culture flasks at 37° C. in a 5% CO2-humidified incubator.
All compounds were dissolved in DMSO at 30 mM. Compound stock solutions were freshly diluted with external solution to concentrations of 30 nM, 100 nM, 300 nM, 1 μM, 3 μM, 10 μM, 30 μM and 100 μM. The highest content of DMSO (0.3%) was present in 100 μM.
The voltage protocol (see Table I) was designed to simulate voltage changes during a cardiac action potential with a 300 ms depolarization to +20 mV (analogous to the plateau phase of the cardiac action potential), a repolarization for 300 ms to −50 mV (inducing a tail current) and a final step to the holding potential of −80 mV. The pulse frequency was 0.3 Hz. Control (compound-free) and compound pulse trains for each compound concentration applied contained 70 pulses.
Whole-cell current recordings and compound application were enabled by means of an automated patch clamp platform Patchliner (Nanion). EPC 10 patch clamp amplifier (HEKA) along with Patchmaster software (HEKA Elektronik Dr. Schulze GmbH) was used for data acquisition. Data were sampled at 10 kHz without filtering. Increasing compound concentrations were applied consecutively to the same cell without washouts in between.
AUC and PEAK values were obtained with Patchmaster (HEKA Elektronik Dr. Schulze GmbH). To determine IC50 the last single pulse in the pulse train corresponding to a given compound concentration was used. Obtained AUC and PEAK values in the presence of compound were normalized to control values in the absence of compound.

As for `O=C1O[C@H](c2c(O)ccc(Cl)c2Cl)CN1CCO` (single isomer, unassigned; isomer 1) [Compound 93, 5-(2,3-dichloro-6-hydroxyphenyl)-3-(2-hydroxyethyl)oxazolidin-2-one isomer 1], the IC50 (usually the midpoint of a concentration-inhibition curve) on Kv1.3 potassium channel was below 1 µM; on hERG channel, above 100 µM.
The corresponding values for `Cn1cc(N2C[C@H](c3c(O)ccc(Cl)c3Cl)NC2=O)cn1` [Compound 100, (4S)-4-(2,3-dichloro-6-hydroxyphenyl)-1-(1-methylpyrazol-4-yl)imidazolidin-2-one] are below 0.1 µM and above 30 µM.
The matching figures for `Cc1ncc(N2C[C@H](c3c(O)ccc(Cl)c3Cl)CC2=O)s1` [Compound 67, (S)-4-(2,3-dichloro-6-hydroxyphenyl)-1-(2-methylthiazol-5-yl)pyrrolidin-2-one]: below 0.1 µM and above 100 µM.
In the case of `Nc1cc(N2C[C@H](c3c(O)ccc(Cl)c3Cl)CC2=O)ccn1` [Compound 62, (S)-1-(2-aminopyridin-4-yl)-4-(2,3-dichloro-6-hydroxyphenyl)pyrrolidin-2-one], the IC50 at Kv1.3 potassium channel is below 0.1 µM; against hERG channel, above 1 µM.
As to `O=C1N[C@H](c2c(O)ccc(Cl)c2Cl)CCN1[C@H]1CCNC1` (single isomer, unassigned) [Compound 10, 4-(2,3-dichloro-6-hydroxyphenyl)-1-[pyrrolidin-3-yl]-tetrahydropyrimidin-2(1H)-one], the IC50 on Kv1.3 potassium channel was below 1 µM.
On to `O=C1C[C@@H](c2c(O)ccc(Cl)c2Cl)CCN1[C@@H]1CCNC1` (single isomer, unassigned) [Compound 4, 4-(2,3-dichloro-6-hydroxyphenyl)-1-[pyrrolidin-3-yl]piperidin-2-one], for which the IC50 at Kv1.3 potassium channel is below 1 µM.
With `C[C@@H](CO)N1C[C@H](c2c(O)ccc(Cl)c2Cl)CC1=O` (single isomer, unassigned; isomer 2) [Compound 39], the IC50 on Kv1.3 potassium channel is below 1 µM; against hERG channel, above 100 µM.
On to `O=C1C[C@@H](c2c(O)ccc(Cl)c2Cl)CN1C1COC1` [Compound 24, (S)-4-(2,3-dichloro-6-hydroxyphenyl)-1-(oxetan-3-yl)pyrrolidin-2-one], for which the IC50 at Kv1.3 potassium channel was below 0.1 µM; against hERG channel, above 30 µM.
`C[C@@H]1[C@H](c2c(O)ccc(Cl)c2Cl)CC(=O)N1CCO` [Compound 84, (4S,5R)-4-(2,3-dichloro-6-hydroxyphenyl)-1-(2-hydroxyethyl)-5-methylpyrrolidin-2-one]: the IC50 at Kv1.3 potassium channel is below 1 µM.
On to `O=C1C[C@@H](c2c(O)ccc(Cl)c2Cl)CN1[C@H]1CCNC1` (single isomer, unassigned) [Compound 12, 4-(2,3-dichloro-6-hydroxyphenyl)-[1,3-bipyrrolidin]-2-one], for which the IC50 at Kv1.3 potassium channel is below 1 µM; against hERG channel it was above 30 µM.
For the compound `C[C@H]1C(=O)N(C2CNC2)C[C@H]1c1c(O)ccc(Cl)c1Cl` (single isomer, unassigned; isomer 1) [Compound 87, 1-(azetidin-3-yl)-4-(2,3-dichloro-6-hydroxyphenyl)-3-methylpyrrolidin-2-one isomer 1], at Kv1.3 potassium channel, the IC50 was below 1 µM.
On the same count and under the same terms, as for `C[C@H]1C(=O)N(C2CNC2)C[C@@H]1c1c(O)ccc(Cl)c1Cl` (single isomer, unassigned; isomer 3) [Compound 89, 1-(azetidin-3-yl)-4-(2,3-dichloro-6-hydroxyphenyl)-3-methylpyrrolidin-2-one isomer 3], the figure is below 10 µM.
As for `Cn1cnc(N2C[C@H](c3c(O)ccc(Cl)c3Cl)CC2=O)c1` [Compound 59, (S)-4-(2,3-dichloro-6-hydroxyphenyl)-1-(1-methyl-1H-imidazol-4-yl)pyrrolidin-2-one], the half-maximal inhibitory concentration (IC50) on Kv1.3 potassium channel is below 1 µM.
Turning to `O=C1C[C@H](c2c(O)ccc(Cl)c2Cl)CCN1[C@@H]1CCNC1` (single isomer, unassigned) [Compound 3, 4-(2,3-dichloro-6-hydroxyphenyl)-1-[pyrrolidin-3-yl]piperidin-2-one], on Kv1.3 potassium channel, the IC50 was below 1 µM.
For `O=C1C[C@@H](c2c(O)ccc(Cl)c2Cl)CN1C1CCOC1` (single isomer, unassigned; isomer 2) [Compound 28], the IC50 on Kv1.3 potassium channel is below 1 µM.
Still for that read-out and setting: the result for `O=C1C[C@@H](c2c(O)ccc(Cl)c2Cl)CN1c1cccnc1` [Compound 63, (S)-4-(2,3-dichloro-6-hydroxyphenyl)-1-(pyridin-3-yl)pyrrolidin-2-one] reads below 1 µM; that for `O=C1C[C@@H](c2c(O)ccc(Cl)c2Cl)CN1[C@H]1CCOC1` (single isomer, unassigned; isomer 1) [Compound 27], below 1 µM; that for `C[C@H]1[C@@H](c2c(O)ccc(Cl)c2Cl)CC(=O)N1CCO` [Compound 85, (4R,5S)-4-(2,3-dichloro-6-hydroxyphenyl)-1-(2-hydroxyethyl)-5-methylpyrrolidin-2-one], below 30 µM.
On to `CC(C)(O)CCN1C[C@H](c2c(O)ccc(Cl)c2Cl)CC1=O` [Compound 45, (S)-4-(2,3-dichloro-6-hydroxyphenyl)-1-(3-hydroxy-3-methylbutyl)pyrrolidin-2-one], for which the IC50 on Kv1.3 potassium channel was below 1 µM.
Still for that read-out and setting: the result for `C[C@@H]1C(=O)N(C2CNC2)C[C@H]1c1c(O)ccc(Cl)c1Cl` (single isomer, unassigned; isomer 2) [Compound 88, 1-(azetidin-3-yl)-4-(2,3-dichloro-6-hydroxyphenyl)-3-methylpyrrolidin-2-one isomer 2] reads below 10 µM.
On the same count and under the same terms, the result for `CC1[C@@H](c2c(O)ccc(Cl)c2Cl)CC(=O)N1C[C@H](O)CO` (stereo in doubt) [Compound 78, (4R,5R)-4-(2,3-dichloro-6-hydroxyphenyl)-1-[(2S)-2,3-dihydroxypropyl]-5-methylpyrrolidin-2-one] reads below 10 µM; that for `O=C1CN[C@H](c2c(O)ccc(Cl)c2Cl)CN1C1CNC1` (single isomer, unassigned; isomer 2) [Compound 98, 1-(azetidin-3-yl)-5-(2,3-dichloro-6-hydroxyphenyl)piperazin-2-one isomer 2], below 30 µM.
Consider `CC1[C@@H](c2c(O)ccc(Cl)c2Cl)CC(=O)N1CCO` (stereo in doubt) [Compound 80, (4R,5R)-4-(2,3-dichloro-6-hydroxyphenyl)-1-(2-hydroxyethyl)-5-methylpyrrolidin-2-one], for which the IC50 at Kv1.3 potassium channel was below 10 µM.
On the same count and under the same terms, the result for `Cc1cc(N2C[C@H](c3c(O)ccc(Cl)c3Cl)CC2=O)sn1` [Compound 60, (S)-4-(2,3-dichloro-6-hydroxyphenyl)-1-(3-methylisothiazol-5-yl)pyrrolidin-2-one] reads below 1 µM; that for `O=C1CO[C@@H](c2c(O)ccc(Cl)c2Cl)CN1CCO` (single isomer, unassigned; isomer 2) [Compound 96, 6-(2,3-dichloro-6-hydroxyphenyl)-4-(2-hydroxyethyl)morpholin-3-one isomer 2], below 30 µM.
Still for that read-out and setting: as for `O=C1C[C@@H](c2c(O)ccc(Cl)c2Cl)CN1C(CO)CO` [Compound 18, (4S)-4-(2,3-dichloro-6-hydroxyphenyl)-1-(1,3-dihydroxypropan-2-yl)pyrrolidin-2-one], the figure is below 1 µM; as for `N[C@@H](CO)CN1C[C@H](c2c(O)ccc(Cl)c2Cl)CC1=O` [Compound 49, (4S)-1-[(2R)-2-amino-3-hydroxypropyl]-4-(2,3-dichloro-6-hydroxyphenyl)pyrrolidin-2-one], below 0.1 µM; as for `O=C1C[C@@H](c2c(O)ccc(Cl)c2Cl)CN1c1cnn(CCO)c1` [Compound 69, (S)-4-(2,3-dichloro-6-hydroxyphenyl)-1-(1-(2-hydroxyethyl)-1H-pyrazol-4-yl)pyrrolidin-2-one], below 0.1 µM.
Still for that read-out and setting: the result for `O=C1CN[C@@H](c2c(O)ccc(Cl)c2Cl)CN1C1CNC1` (single isomer, unassigned; isomer 1) [Compound 97, 1-(azetidin-3-yl)-5-(2,3-dichloro-6-hydroxyphenyl)piperazin-2-one isomer 1] reads below 1 µM; that for `O=C1CC[C@@H](c2c(O)ccc(Cl)c2Cl)CN1[C@H]1CCNC1` (single isomer, unassigned) [Compound 6, 5-(2,3-dichloro-6-hydroxyphenyl)-1-[pyrrolidin-3-yl]piperidin-2-one], below 1 µM; that for `C[C@H](O)CCN1C[C@H](c2c(O)ccc(Cl)c2Cl)CC1=O` (single isomer, unassigned; isomer 2) [Compound 48], below 0.1 µM.
With `O=C1N[C@@H](c2c(O)ccc(Cl)c2Cl)CCN1[C@H]1CCNC1` (single isomer, unassigned) [Compound 8, 4-(2,3-dichloro-6-hydroxyphenyl)-1-[pyrrolidin-3-yl]-tetrahydropyrimidin-2(1H)-one], the IC50 on Kv1.3 potassium channel is below 1 µM.
Consider `Cc1cc(N2C[C@H](c3c(O)ccc(Cl)c3Cl)CC2=O)no1` [Compound 73, (S)-4-(2,3-dichloro-6-hydroxyphenyl)-1-(5-methylisoxazol-3-yl)pyrrolidin-2-one], for which the IC50 at Kv1.3 potassium channel was below 10 µM.
Same read-out and setting: as for `N[C@@H]1C(=O)N(C2CNC2)C[C@H]1c1c(O)ccc(Cl)c1Cl` [Compound 91, (3S,4R)-3-amino-1-(azetidin-3-yl)-4-(2,3-dichloro-6-hydroxyphenyl)pyrrolidin-2-one], the figure is below 10 µM.
In the case of `N[C@H](CO)CN1C[C@H](c2c(O)ccc(Cl)c2Cl)CC1=O` [Compound 50, (4S)-1-[(2S)-2-amino-3-hydroxypropyl]-4-(2,3-dichloro-6-hydroxyphenyl)pyrrolidin-2-one], the IC50 at Kv1.3 potassium channel was below 0.1 µM.
Take `C[C@H]1[C@@H](c2c(O)ccc(Cl)c2Cl)CC(=O)N1C1CNC1` [Compound 83, (4R,5S)-1-(azetidin-3-yl)-4-(2,3-dichloro-6-hydroxyphenyl)-5-methylpyrrolidin-2-one]: the IC50 on Kv1.3 potassium channel is below 10 µM.
On the same count and under the same terms, the result for `C[C@@H](O)CCN1C[C@H](c2c(O)ccc(Cl)c2Cl)CC1=O` (single isomer, unassigned; isomer 1) [Compound 47] reads below 0.1 µM.

Values taken from US20230373952A1, “LACTAM COMPOUNDS AS Kv1.3 POTASSIUM SHAKER CHANNEL BLOCKERS” (D.E. Shaw Research, LLC, priority 2020, published 2023).
